Measured values from patent US12692264B2, “Pyrimidine or pyridine derivative, preparation method therefor, and application thereof in pharmacy” (ABBISKO THERAPEUTICS CO., LTD., priority 2021, dated 2026).

Tests used:
Type in all cases: cell-based
[1] = test system: A431 (EGFR-WT); test: Cell proliferation study (CellTiter-Glo, 72 hrs), A431; conditions: Homo sapiens, A-431, A431 cells, CTG, * = average of multiple measurements
Procedure: (§1) (I) Reagents and Materials
(§2) • Fetal bovine serum FBS (GBICO, Cat #10099-141); • CellTiter-Glo® luminescent cell viability assay kit (Promega, Cat #G7572); • Black transparent flat-bottom 96-well plate (Corning®, Cat #3603). (II) Instruments • SpectraMax multi-label microplate reader MD, 2104-0010A; • Carbon dioxide incubator, Thermo Scientific 3100 series; • Biological safety cabinet, Thermo Scientific, 1300 series model A2; • Inverted microscope, Olympus, CKX41SF; • Siemens refrigerator KK25E76T1. (III) Cell Lines and Culture Conditions
(§3) (IV) Experimental Procedures 1. Cell Culture and Inoculation: • (1) Cells in the logarithmic growth phase were harvested and counted using a […]. The cell viability was determined by the trypan blue dye exclusion method to ensure cell viability above 90%. • (2) The cell concentration was adjusted to reach a desired final density; 90 μL of cell suspension was added to a 96-well plate. • (3) The cells were incubated overnight in the 96-well plate at 37° C., 5% CO2 and with 95% humidity. 2. T0 Benchmark Data: • (1) 10 μL of PBS was added to each well of the TO plate containing the cells. • (2) The CTG reagent was thawed and the cell plate was equilibrated to room temperature for 30 min. • (3) An equal volume of CTG solution was added to each well. • (4) The cells were lysed by shaking on an orbital shaker for 5 min. • (5) The cell plate was left to stand at room temperature for 20 min to stabilize the fluorescence signal. • (6) The fluorescence signal values of TO were read. 3. Dilution and Addition of Compounds • (1) According to the compound information table, a corresponding volume of DMSO was added to the corresponding compound powder to prepare a 10 mM stock solution. • (2) A 1000-fold, 3.16-fold-diluted compound solution was prepared. • (3) The 1000× diluted compound solution was diluted 100-fold with PBS to prepare a 10-fold compound solution with a maximum concentration of 10 μM, including 9 concentrations, with 3.16-fold dilution, and 10 μL of the medicament solution was added to each well of the 96-well plate to seed the cells. Triplicate wells were set for each compound concentration, with a final concentration of DMSO being 0.1%. • (4) The cells were placed in the 96-well plate containing the medicament at 37° C., 5% CO2 and with 95% humidity, and cultured for 72 hrs before CTG analysis. 4. Fluorescence Signal Reading • (1) The CTG reagent was thawed and the cell plate was equilibrated to room temperature for 30 min. • (2) An equal volume of CTG solution was added to each well. • (3) The cells were lysed by shaking on an orbital shaker for 5 min. • (4) The cell plate was left to stand at room temperature for 20 min to stabilize the fluorescence signal. • (5) The fluorescence values were read. 5. Data Processing
(§4) Data were analyzed using GraphPad Prism 7.0 software and fitted data were regressed using non-linear S-curves to obtain dose-response curves from which IC50 values (in nM) were calculated.

[2] = molecular target: Ba/F3 EGFR-D770-N771ins_SVD (Homo sapiens, UniProt P00533, DUP768-770, cells depend on it); test: Cell proliferation study (CellTiter-Glo, 72 hrs), Ba/F3 EGFR-D770-N771ins_SVD; conditions: CTG, * = average of multiple measurements, read-out: Ba/F3 EGFR-D770-N771ins_SVD IC50
Sequence of Ba/F3 EGFR-D770-N771ins_SVD (P00533 with tags, fused parts or gaps DUP768-770): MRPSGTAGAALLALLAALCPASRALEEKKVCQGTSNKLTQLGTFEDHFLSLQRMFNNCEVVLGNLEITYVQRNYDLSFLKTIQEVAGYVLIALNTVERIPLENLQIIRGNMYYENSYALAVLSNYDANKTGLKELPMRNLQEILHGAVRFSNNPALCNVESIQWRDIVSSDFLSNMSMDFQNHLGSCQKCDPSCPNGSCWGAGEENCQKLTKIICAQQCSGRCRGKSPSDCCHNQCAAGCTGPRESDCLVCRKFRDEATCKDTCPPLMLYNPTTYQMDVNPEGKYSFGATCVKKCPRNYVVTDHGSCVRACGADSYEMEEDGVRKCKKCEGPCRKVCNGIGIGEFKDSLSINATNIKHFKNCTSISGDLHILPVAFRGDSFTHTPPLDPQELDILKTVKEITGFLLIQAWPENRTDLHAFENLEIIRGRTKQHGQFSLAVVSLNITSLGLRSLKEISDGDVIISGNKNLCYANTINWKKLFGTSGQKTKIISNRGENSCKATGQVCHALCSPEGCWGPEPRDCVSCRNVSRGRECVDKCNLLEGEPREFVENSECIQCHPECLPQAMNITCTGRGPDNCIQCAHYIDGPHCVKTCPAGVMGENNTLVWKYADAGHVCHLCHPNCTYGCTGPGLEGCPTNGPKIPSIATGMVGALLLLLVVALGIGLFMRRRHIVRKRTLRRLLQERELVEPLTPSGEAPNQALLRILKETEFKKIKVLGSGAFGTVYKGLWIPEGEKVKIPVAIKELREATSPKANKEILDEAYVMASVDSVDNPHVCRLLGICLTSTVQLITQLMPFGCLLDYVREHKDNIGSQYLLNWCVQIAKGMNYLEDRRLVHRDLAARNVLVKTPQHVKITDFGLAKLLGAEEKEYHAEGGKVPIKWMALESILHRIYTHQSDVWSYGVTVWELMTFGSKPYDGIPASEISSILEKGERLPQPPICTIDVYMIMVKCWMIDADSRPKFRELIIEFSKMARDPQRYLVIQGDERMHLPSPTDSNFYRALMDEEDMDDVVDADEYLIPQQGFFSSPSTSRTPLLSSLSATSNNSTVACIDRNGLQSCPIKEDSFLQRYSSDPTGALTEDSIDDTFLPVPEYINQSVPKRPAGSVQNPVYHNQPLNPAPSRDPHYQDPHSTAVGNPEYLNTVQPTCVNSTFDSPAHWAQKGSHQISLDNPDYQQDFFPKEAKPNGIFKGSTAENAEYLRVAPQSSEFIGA
Procedure: as §1, §2, §3, §4

[3] = molecular target: Ba/F3 EGFR-V769_D770insASV (Homo sapiens, UniProt P00533, DUP767-769, cells depend on it); test: Cell proliferation study (CellTiter-Glo, 72 hrs), Ba/F3 EGFR-V769_D770insASV; conditions: CTG, * = average of multiple measurements, read-out: Ba/F3 EGFR-V769_D770insASV IC50
Sequence of Ba/F3 EGFR-V769_D770insASV (P00533 with tags, fused parts or gaps DUP767-769): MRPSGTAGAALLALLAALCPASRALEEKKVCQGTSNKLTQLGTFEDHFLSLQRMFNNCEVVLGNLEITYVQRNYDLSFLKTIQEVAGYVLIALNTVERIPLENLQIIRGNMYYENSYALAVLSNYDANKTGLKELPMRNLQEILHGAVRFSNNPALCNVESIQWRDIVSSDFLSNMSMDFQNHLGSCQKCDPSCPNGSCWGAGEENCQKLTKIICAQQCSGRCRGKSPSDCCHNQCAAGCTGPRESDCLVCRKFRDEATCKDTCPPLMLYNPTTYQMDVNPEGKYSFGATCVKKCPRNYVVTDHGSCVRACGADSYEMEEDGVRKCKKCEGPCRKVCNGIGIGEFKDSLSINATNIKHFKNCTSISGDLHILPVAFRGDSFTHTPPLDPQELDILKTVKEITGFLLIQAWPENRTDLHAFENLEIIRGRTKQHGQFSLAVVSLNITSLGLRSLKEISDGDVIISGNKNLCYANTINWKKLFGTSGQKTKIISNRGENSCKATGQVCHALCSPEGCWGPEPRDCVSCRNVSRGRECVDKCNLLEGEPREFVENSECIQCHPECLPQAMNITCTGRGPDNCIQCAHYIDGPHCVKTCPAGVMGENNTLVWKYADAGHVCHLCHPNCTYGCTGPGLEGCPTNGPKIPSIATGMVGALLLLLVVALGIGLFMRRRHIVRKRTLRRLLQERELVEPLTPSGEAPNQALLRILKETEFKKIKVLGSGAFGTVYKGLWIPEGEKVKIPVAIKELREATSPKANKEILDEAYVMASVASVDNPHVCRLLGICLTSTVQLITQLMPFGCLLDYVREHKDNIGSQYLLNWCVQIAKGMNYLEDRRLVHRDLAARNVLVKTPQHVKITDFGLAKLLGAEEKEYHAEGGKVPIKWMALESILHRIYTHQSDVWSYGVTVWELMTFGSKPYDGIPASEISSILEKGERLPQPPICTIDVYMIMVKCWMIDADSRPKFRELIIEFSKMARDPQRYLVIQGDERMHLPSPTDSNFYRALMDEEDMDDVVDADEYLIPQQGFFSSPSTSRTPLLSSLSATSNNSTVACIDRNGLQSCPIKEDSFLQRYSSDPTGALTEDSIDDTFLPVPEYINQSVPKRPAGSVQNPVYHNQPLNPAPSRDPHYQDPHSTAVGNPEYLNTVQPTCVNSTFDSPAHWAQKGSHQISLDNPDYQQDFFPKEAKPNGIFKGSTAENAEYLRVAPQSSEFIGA
Procedure: as §1, §2, §3, §4

Row | Structure (SMILES) | IC50 [1] | GI50 [2] | GI50 [3]
1 | C=CC(=O)Nc1cc(Nc2ncc(C(=O)OC(C)C)c(N3CC(C)(C)c4nc(C)ccc43)n2)c(OC)cc1N(C)C[C@@H]1CCCN1C [Example 41, isopropyl (S)-2-((5-acrylamido-2-methoxy-4-(methyl((1-methylpyrrolidin-2-yl)methyl)amino)phenyl)amino)-4-(3,3,5-trimethyl-2,3-dihydro-1H-pyrrolo[3,2-b]pyridin-1-yl)pyrimidine-5-carboxylate] | 213 nM | 36.3 nM | 
2 | [2H]C([2H])([2H])N(CCN(C([2H])([2H])[2H])C([2H])([2H])[2H])c1cc(OC)c(Nc2ncc(C(=O)OC(C)C)c(N3CC4(CC4)c4nc(C)ccc43)n2)cc1NC(=O)C=C [Example 69, isopropyl 2-((5-acrylamido-4-((2-(bis(methyl-d3)amino)ethyl)(methyl-d3)amino)-2-methoxyphenyl)amino)-4-(5′-methylspiro(cyclopropane-1,3′-pyrrolo[3,2-b]pyridin)-1′(2′H)-yl)pyrimidine-5-carboxylate] |  | 26.9 nM | 35.2 nM
3 | C=CC(=O)Nc1cc(Nc2ncc(C(=O)OC(C)C)c(N3CC(C)(C)c4nc(C)ccc43)n2)c(OC)nc1N1CC[C@@H](N(C)C)C1 [Example 35, isopropyl (R)-2-((5-acrylamido-6-(3-(dimethyl-amino)pyrrolidin-1-yl)-2-methoxy-pyridin-3-yl)amino)-4-(3,3,5-trimethyl-2,3-dihydro-1H-pyrrolo[3,2-b]pyridin-1-yl)pyrimidine-5-carboxylate] | 1070 nM | 36 nM | 
4 | C=CC(=O)Nc1cc(Nc2ncc(C(=O)OC(C)C)c(N3CC4(CC4)c4nc(C)ccc43)n2)c(OC)cc1N1CCC[C@H]1CN(C)C [Example 51, isopropyl (S)-2-((5-acrylamido-4-(2-((dimethyl-amino)methyl)pyrrolidin-1-yl)-2-meth-oxyphenyl)amino)-4-(5′-methyl-spiro(cyclopropane-1,3′-pyrrolo[3,2-b]pyridin)-1′(2′H)-yl)pyrimidine-5-carboxylate] |  | 199 nM | 
5 | C=CC(=O)Nc1cc(Nc2ncc(C(=O)OC(C)C)c(N3CC(C)(C)c4nc(C(=C)C)ccc43)n2)c(OC)cc1N(C)CCN(C)C [Example 14, isopropyl 2-((5-acrylamido-4-((2-(dimethylami-no)ethyl)(methyl)amino)-2-methoxy-phenyl)amino)-4-(3,3-dimethyl-5-(prop-1-en-2-yl)-2,3-dihydro-1H-pyrrolo[3,2-b]pyridin-1-yl)pyrimidine-5-carboxylate] |  | 39 nM | 
6 | [2H]C([2H])([2H])Oc1cc(N(C)CCN(C)C)c(NC(=O)C=C)cc1Nc1ncc(C(=O)OC(C)C)c(N2CC(C)(C)c3nc(C)ccc32)n1 [Example 27, isopropyl 2-((5-acrylamido-4-((2-(dimethylami-no)ethyl)(methyl)amino)-2-(methoxy-d3)phenyl)amino)-4-(3,3,5-trimethyl-2,3-dihydro-1H-pyrrolo[3,2-b]pyridin-1-yl)pyrimidine-5-carboxylate] | 580 nM | 14.1 nM | 
7 | C=CC(=O)Nc1cc(Nc2ncc(C(=O)OC(C)C)c(N3CC(C)(C)c4nc(C#CC(C)C)ccc43)n2)c(OC)cc1N(C)CCN(C)C [Example 19, isopropyl 2-((5-acrylamido-4-((2-(dimethylami-no)ethyl)(methyl)amino)-2-methoxy-phenyl)amino)-4-(3,3-dimethyl-5-(3-methylbut-1-yn-1-yl)-2,3-dihydro-1H-pyrrolo[3,2-b]pyridin-1-yl)pyrimidine-5-carboxylate] |  | 119 nM | 
8 | C=CC(=O)Nc1cc(Nc2ncc(C(=O)OC(C)C)c(N3CC(C)(C)c4cc(F)c(F)cc43)n2)c(OC)cc1N1CC[C@@H](N(C)C)C1 [Example 94, isopropyl (R)-2-((5-acrylamido-4-(3-(dimethyl-amino)pyrrolidin-1-yl)-2-methoxy-phenyl)amino)-4-(5,6-difluoro-3,3-dimethylindolin-1-yl)pyrimidine-5-carboxylate] |  | 60 nM | 
9 | C=CC(=O)Nc1cc(Nc2ncc(C(=O)OC(C)C)c(N3CC(C)(C)c4nc(C5CC5)ccc43)n2)c(OC)cc1N(C)CCN(C)C [Example 4, isopropyl 2-((5-acrylamido-4-((2-(dimethylami-no)ethyl)(methyl)amino)-2-methoxy-phenyl)amino)-4-(5-cyclopropyl-3,3-dimethyl-2,3-dihydro-1H-pyrrolo[3,2-b]pyridin-1-yl)pyrimidine-5-carboxylate] | 163 nM | 59.5 nM | 
10 | C=CC(=O)Nc1cc(Nc2ncc(C(=O)OC(C)C)c(N3CC(C)(C)c4nc(C#N)ccc43)n2)c(OC)cc1N(C)CCN(C)C [Example 23, isopropyl 2-((5-acrylamido-4-((2-(dimethylami-no)ethyl)(methyl)amino)-2-methoxy-phenyl)amino)-4-(5-cyano-3,3-dimethyl-2,3-dihydro-1H-pyrrolo[3,2-b]pyridin-1-yl)pyrimidine-5-carboxylate] |  | 92.2 nM | 
11 | C=CC(=O)Nc1cc(Nc2ncc(C(=O)OC(C)C)c(N3CC(C)(C)c4nc(C)ccc43)n2)c(OC)nc1N1CCC[C@H]1CN(C)C [Example 43, isopropyl (S)-2-((5-acrylamido-6-(2-((dimethyl-amino)methyl)pyrrolidin-1-yl)-2-meth-oxypyridin-3-yl)amino)-4-(3,3,5-tri-methyl-2,3-dihydro-1H-pyrrolo[3,2-b]pyridin-1-yl)pyrimidine-5-carboxylate] |  | 453 nM | 

More lines, now with the values ahead:

Row | IC50 [1] | GI50 [2] | GI50 [3] | Structure (SMILES)
12 |  | 78.3 nM |  | C=CC(=O)Nc1cc(Nc2ncc(C(=O)OC(C)C)c(N3CC(C)(C)c4nc(C)ccc43)n2)c(OC)cc1N1CC[C@H](N(C)C)C1 [Example 13, isopropyl (S)-2-((5-acrylamido-4-(3-(dimethyl-amino)pyrrolidin-1-yl)-2-methoxy-phenyl)amino)-4-(3,3,5-trimethyl-2,3-dihydro-1H-pyrrolo[3,2-b]pyridin-1-yl)pyrimidine-5-carboxylate]
13 |  | 255 nM |  | C=CC(=O)Nc1cc(Nc2ncc(C(=O)OC(C)C)c(N3CC(C)(C)c4nc(C)ccc43)n2)c(OC)cc1N1CCC[C@@H](N(C)C)C1 [Example 61, isopropyl (R)-2-((5-acrylamido-4-(3-(dimethyl-amino)piperidin-1-yl)-2-methoxy-phenyl)amino)-4-(3,3,5-trimethyl-2,3-dihydro-1H-pyrrolo[3,2-b]pyridin-1-yl)pyrimidine-5-carboxylate]
14 |  | 254 nM |  | C=CC(=O)Nc1cc(Nc2ncc(C(=O)OC(C)C)c(N3CC(C)(C)c4nc(C#CC)ccc43)n2)c(OC)cc1N1CCN(C)C(C)C1 (stereo not drawn) [Example 95, isopropyl 2-((5-acrylamido-4-(3,4-dimethyl-piperazin-1-yl)-2-methoxy-phenyl)amino)-4-(3,3-dimethyl-5-(prop-1-yn-1-yl)-2,3-dihydro-1H-pyrrolo[3,2-b]pyridin-1-yl)pyrimidine-5-carboxylate]
15 |  | 443 nM |  | C=CC(=O)Nc1cc(Nc2ncc(C(=O)OC(C)C)c(N3CC(C)(C)c4nc(C)ccc43)n2)c(OC)cc1N1CCN(CC)CC1 [Example 34, isopropyl 2-((5-acrylamido-4-(4-ethylpiperazin-1-yl)-2-methoxyphenyl)amino)-4-(3,3,5-trimethyl-2,3-dihydro-1H-pyrrolo[3,2-b]pyridin-1-yl)pyrimidine-5-carboxylate]
16 |  | 552 nM |  | [2H]C1([2H])N(c2nc(Nc3cc(NC(=O)C=C)c(N4CCN(C5CC5)CC4)cc3OC)ncc2C(=O)OC(C)C)c2ccc(C)nc2C1(C)C [Example 53, isopropyl 2-((5-acrylamido-4-(4-cyclopropyl-piperazin-1-yl)-2-methoxy-phenyl)amino)-4-(3,3,5-trimethyl-2,3-dihydro-1H-pyrrolo[3,2-b]pyridin-1-yl-2,2-d2)pyrimidine-5-carboxylate]
